Reference: PubChem BioAssay AID651973 (The Scripps Research Institute Molecular Screening Center, 2013)
The source made the active and inactive calls. No rule for the calls is given here.

These compounds were tested on Cell-based VP16 transactivation luciferase reporter, luminescence (assay: compounds lowering VP16-driven luciferase output – cell-based, luminescence, counter-screen for LRH-1 inverse agonist project, dose response (AID 651973)).
For `COc1ccc(C2(C)NC(=O)N(CC(=O)NCCC3=CCCCC3)C2=O)cc1OC` (stereo unspecified), the IC50 was > 35.9 µM (inactive). In the case of `O=C(COC(=O)c1ccc[n+]([O-])c1)Nc1ccc([N+](=O)[O-])cc1Cl`, the IC50 was > 35.9 µM (inactive). `COc1cccc(-c2cnc3c(NC(C)=O)cc(-c4ccc(S(C)(=O)=O)cc4)cn23)c1` was tested, and the IC50 was > 35.9 µM (inactive). For `Cc1ccc(-c2csc(NC(=O)c3ccc([N+](=O)[O-])o3)n2)cc1`, the IC50 was > 35.9 µM (inactive). In the case of `COc1ccc(NC(=O)CSc2nc(N)c(-c3ccccc3)c(=O)[nH]2)cc1`, the IC50 was > 35.9 µM (inactive). `COc1ccc(NC(=O)COC(=O)c2cc(S(=O)(=O)N3CCCC3)ccc2O)cc1` was tested, and the IC50 was > 35.9 µM (inactive). For `CCCc1nnc(SCC(=O)Nc2ccc(C(=O)OCC)cc2)o1`, the IC50 was > 35.9 µM (inactive). With `CN(C)S(=O)(=O)c1cccc(C(=O)OCC(=O)Nc2ccc3c(c2)OCCO3)c1` the IC50 was > 35.9 µM (inactive). `CCC(C)(C)n1nnnc1CN1CCC(O)(c2cccc(C(F)(F)F)c2)CC1` was tested, and the IC50 was > 35.9 µM (inactive). In the case of `Cc1ccc(NC(=O)CSc2nnc([C@@H]3CCCN3C(=O)OC(C)(C)C)o2)c(C)c1`, the IC50 was > 35.9 µM (inactive). For `CC(=O)c1ccc(NC(=O)C(C)O/N=C(\N)c2ccccc2)cc1` (stereo unspecified), the IC50 was > 35.9 µM (inactive). For `COC(=O)c1ccc(CNC(=O)COC(=O)c2cc(Cl)nc(Cl)c2)cc1`, the IC50 was > 35.9 µM (inactive). `Cc1nnc(SCC(=O)Nc2ccc(Br)cc2)n(N)c1=O` was tested, and the IC50 was > 35.9 µM (inactive). For `Cc1onc(-c2c(F)cccc2Cl)c1C(=O)O/N=C(\N)c1ccc([N+](=O)[O-])o1`, the IC50 was > 35.9 µM (inactive). For `COc1ccnc(Oc2ccccc2)c1C(=O)N/C=N/OCc1ccccc1F`, the IC50 was 28.2 µM (inactive). In the case of `COc1ccc(CCNC(=O)COC(=O)C23CC4CC(CC(C4)C2)C3)cc1`, the IC50 was > 35.9 µM (inactive). `O=C(NCc1ccco1)c1nn(-c2ccccc2)c(=O)c2ccccc12` was tested, and the IC50 was > 35.9 µM (inactive). With `COC(=O)c1ccc(NC(=O)CSc2nn3c(=O)c(C)nnc3s2)cc1` the IC50 was > 35.9 µM (inactive). With `Cc1cc(C)c2c(=O)[nH]c(SCC(=O)Nc3ccc(Br)cc3)nc2n1` the IC50 was > 35.9 µM (inactive). `Cc1cc(NC(=O)c2ccc([N+](=O)[O-])o2)ccc1NC(=O)c1ccco1` was tested, and the IC50 was > 35.9 µM (inactive). In the case of `CCc1cc(=O)oc2c(C)c(OCC(=O)NCCCN3CCCC3=O)ccc12`, the IC50 was > 35.9 µM (inactive). In the case of `CCCc1cc(=O)oc2cc(OCC(=O)NCCc3ccc(S(N)(=O)=O)cc3)ccc12`, the IC50 was > 35.9 µM (inactive). With `Cc1ccc(C)c(NC(=O)CSc2nc3[nH]ncc3c(=O)[nH]2)c1` the IC50 was > 35.9 µM (inactive). In the case of `Cc1cc(Br)ccc1NC(=O)CN1C(=O)C2CC=CCC2C1=O` (stereo unspecified), the IC50 was > 35.9 µM (inactive). `O=C(Nc1ccccc1C(=O)Nc1nccs1)c1ccccc1` was tested, and the IC50 was 14.7 µM (inactive). `O=C(Nc1nc2c(Cl)cccc2s1)c1ccc([N+](=O)[O-])o1` was tested, and the IC50 was > 35.9 µM (inactive). `Cc1cc(OCC(=O)Nc2nccs2)c2c(C)cc(=O)oc2c1` was tested, and the IC50 was > 35.9 µM (inactive). For `COC(=O)c1ccc(NC(=O)COc2cccc(-n3cnnn3)c2)cc1`, the IC50 was > 35.9 µM (inactive). For `O=C(CSc1nnc(CNC(=O)c2c(F)cccc2F)o1)Nc1ccc2c(c1)OCCO2`, the IC50 was > 35.9 µM (inactive). In the case of `COC(=O)c1ccc(NC(=O)CSc2ccc(-c3ccccn3)nn2)cc1`, the IC50 was > 35.9 µM (inactive). With `O=C(Nc1ccc(Br)cn1)c1ccc([N+](=O)[O-])o1` the IC50 was > 35.9 µM (inactive). `COc1ccc(CCNC(=O)CSc2ccc(NC(C)=O)cc2)cc1OC` was tested, and the IC50 was > 35.9 µM (inactive). For `O=C(Nc1ccc(S(=O)(=O)N2CCOCC2)cc1)c1cccc([N+](=O)[O-])c1`, the IC50 was > 35.9 µM (inactive). For `CS(=O)(=O)c1ccc(-c2cc(NC=O)c3ncc(-c4ccc(F)cc4)n3c2)cc1`, the IC50 was 14.6 µM (inactive). With `O=C(Nc1ccc(Cc2ccncc2)cc1)c1cccc([N+](=O)[O-])c1` the IC50 was > 35.9 µM (inactive). With `O=C(NCc1cccnc1)c1cccc2c1C(=O)N(C1CCCCC1)C2` the IC50 was > 35.9 µM (inactive). `CCCN(CC(=O)Nc1ccccc1C)CC(=O)Nc1ccc(Br)cc1F` was tested, and the IC50 was > 35.9 µM (inactive). `Cc1ccc(C)c(NC(=O)CSc2nnc(-c3n[nH]c4ccccc34)o2)c1` was tested, and the IC50 was > 35.9 µM (inactive). In the case of `COc1ccc(S(=O)(=O)Nc2ccc3c(c2)n(C)c(=O)n3C)cc1F`, the IC50 was > 35.9 µM (inactive). `CC(=O)Nc1ccc(NC(=O)CSc2nnnn2C2CCCCC2)cc1` was tested, and the IC50 was > 35.9 µM (inactive). `Cc1onc(-c2ccccc2)c1C(=O)O/N=C(\N)c1ccc([N+](=O)[O-])o1` was tested, and the IC50 was > 35.9 µM (inactive). `CCCc1cc(=O)oc2c(C)c(OCC(=O)NC3CC(C)(C)NC(C)(C)C3)ccc12` was tested, and the IC50 was > 35.9 µM (inactive). With `Cc1nn(CC(=O)Nc2ccc3c(c2)OCCO3)c(C)c1[N+](=O)[O-]` the IC50 was > 35.9 µM (inactive). In the case of `CCOc1ccc(NC(=O)CSc2nncc(=O)n2N)cc1`, the IC50 was > 35.9 µM (inactive). In the case of `COc1ccc(NC(=O)CS(=O)(=O)c2ccc(C)cc2)c(OC)c1`, the IC50 was > 35.9 µM (inactive). With `NC(=O)C1CCN(C(=O)COc2ccc3c4c(c(=O)oc3c2)CCC4)CC1` the IC50 was > 35.9 µM (inactive).
